Data: patent publication US12357695B2, “Peptides and nanoparticles for intracellular delivery of molecules” (AADIGEN, LLC, priority 2019, dated 2025)
Entries after “also recorded” stand apart in the source; their conditions may differ. Square brackets hold non-standard residues; d marks the D form. Primed or numbered codes have the meaning given here. Ends that are not written are not given here. Stearyl = stearyl group covalently linked to the N-terminus; PEG4′ = four-unit PEG spacer; PEG2′ = two-unit PEG spacer; PEG7′ = (PEG)7 moiety; Ahx = NCCCCCC(=O)O; Ava = NCCCCC(=O)O; βAla = NCCC(=O)O

Columns and labels:
[1] = system: mice or rat models; experiment: Summary of cargo delivery to targeted organ (Table 1); format: in vivo; conditions: cargoes and route (IV, IM, SQ, NB) per peptide as listed in Table 1
Excerpt: Table 1 lists a summary of cell-penetrating peptides that have been proven successful in delivering various cargo molecules to on or more targeted organ (e.g., by intravenous (IV), intramuscular (IM), or subcutaneous (SQ) administration, or intratraccheal instillation or nebulization (NB)) in mice or rat models.

[2] = system: 293T cells; experiment: Cellular delivery of Luciferase mRNA, luciferase expression at 72 hrs; format: cell-based; conditions: 0.25 μg Luc mRNA; for reduction of efficiency / luciferase expression by modification or linker vs unmodified ADGN peptide: absence of serum or heparan sulfate; for luciferase expression: absence of serum or heparan sulfate treatment; for reduction of efficiency / luciferase expression after serum treatment: complexes incubated 3 hrs in 25% serum prior transfection
Procedure: FIGS. 1A-1C show luciferase expression in 293T cells treated with ADGN-peptide/mRNA complexes. 293T cells cultured in 48 well plates were transfected with ADGN-peptide nanoparticles. ADGN-100, ADGN-106, ADGN-100RI, ADGN-106RI, ADGN-100 Stearyl, ADGN-Hydro1, ADGN-Hydro2, ADGN-Hydro3, ADGN-Hydro4, ADGN-Hydro5, ADGN-Hydro6 and ADGN-peptide/ADGN-100PEG 10% nanoparticles containing 0.25 μg mRNA were formed in sterile water, diluted in sterile water containing 5% Sucrose and filtered with 0.45 μm PES filters. ADGN/mRNA complexes were incubated for 3 hrs in the presence of either 25% serum or heparan sulfate prior transfection. Luciferase expression was monitored 72 hours post transfection and results were reported as RLU (luminescence):mg of protein.
Complex formation with mRNA. The following protocols were used for the transfection of 2-5 106 Cells or Cells at confluency of about 70-80% cultured in 24 well plates. ADGN peptide/mRNA particles were prepared at a 20:1 molar ratio of ADGN-Peptide/mRNA. using (0.25 μg) mRNA. Luc mRNA (0.25 μg) was diluted in 20 μl of sterile water (GIBCO) at room temperature. 5 μl Final Peptide Solution was added to obtain a total volume of 20 μl. The volume was adjusted to 50 μl with sterile water and was mixed gently with vortex 1 min low speed and incubated 30 min at room temperature. Then the volume was made up to 100 μl by adding sterile water containing 5% sucrose, and the solution was mixed gently with vortex 1 min low speed and incubate 5 min at 37° C. and then was proceeded to cell transfection.
Transfection protocol. Protocol is reported for 24 well plate format. Cells were cultured in Dulbecco's Modified Eagle's Medium (DMEM), supplemented with 2 mM glutamine, 1% antibiotics (streptomycin 10,000 μg/mL, penicillin, 10,000 IU/mL) and 10% (w/v) foetal calf serum (FCS), at 37° C. in a humidified atmosphere containing 5% CO2. 24 well plates seeded with 150,000 cells the day prior to transfection were grown to 50-60% confluence and set up to be at about 70% confluences at the time of transfection. Before transfection, cells were washed twice with DMEM. Cells were then overlaid with 0.1 ml of ADGN-peptide/cargo complex solution containing 0.25 μg mRNA, 0.15 μg plasmid DNA or 10-25 nM siRNA, mixed gently, and incubated for 10 min at 37° C. 0.2 mL of fresh DMEM, were added and cells were incubated for 20 min at 37° C. 1 mL of complete DMEM containing 15% FCS were then added in order to reach a final FCS concentration of 10%, without removing the overlay of ADGN-peptide/cargo complexes. Cells were returned to the incubator (37° C., 5% CO2) and 72 hrs post transfection.
ADGN-peptides were evaluated for cellular delivery of Luciferase mRNA in 293T cells. A single dose of mRNA of 0.25 μg was evaluated. Luc mRNA (0.25 μg) in sterile water (GIBCO) were mixed with ADGN-100, ADGN-100RI, ADGN-106, ADGN-106RI, ADGN-100 Stearyl, ADGN-Hydro1, ADGN-Hydro2, ADGN-Hydro5 and ADGN-Hydro6. ADGN-peptide/mRNA complexes were filtered with 0.45 μm PES filter. In order to evaluate the stability of the ADGN/mRNA complexes in high serum and cell culture conditions, the complexes were incubated for 3 hrs in the presence of either 25% serum or heparan sulfate prior transfection, then 293T cells were transfected and Luciferase expression was monitored at 72 hrs.
ADGN-106 peptides containing YIGSR targeting sequence were evaluated for cellular delivery of Luciferase mRNA in 293T cells. A single dose of mRNA of 0.25 μg was evaluated. Luc mRNA (0.25 μg) in sterile water (GIBCO) were mixed with ADGN-106 and ADGN-106Hydro variant. ADGN-peptide/mRNA complexes were filtered with 0.45 μm PES filter. The ADGN-106/mRNA complexes were incubated for 3 hrs in the presence of 25% serum prior transfection, then 293T cells were transfected and Luciferase expression was monitored at 72 hrs.

Row | Substance | Targeted Organ [1] | other results
1 | ASSLNIA-Ava-KWWERWWREWPRKRR (ASSLNIAKWWERWWREWPRKRR; Ava linker; VARIANT 7, 8 Linked by a 5-amino pentanoic acid) [VEPEP-3C] | Muscle | 
2 | Ac-(PEG)2-βA-KWRSALWRWRLWRVRSWSR-NH2 ({Ac-PEG2′}-[βAla]KWRSALWRWRLWRVRSWSR-NH2) [ADGN-100-PEG2] | Lung:Liver/; also recorded: Spleen | 
3 | Ac-(PEG)2-βALWRALWRLWRSLWRLLWKA-NH2 ({Ac-PEG2′}-[βAla]LWRALWRLWRSLWRLLWKA-NH2) [ADGN-106-PEG2] | Lung/Kidney/; also recorded: Spleen | 
4 | Ac-CKRAVRWWLRWASRWFSRWAWWR [VEPEP-9B] | Heart | 
5 | Ac-GYVS-Ava(CH2)2-ALWRALWRLWRSLWRLLWKA-NH2 [ADGN-106 hydro-4] | Brain/Kidney | 
6 | Ac-SYTSSTM-ava-KWWERWWREWPRKRR (SYTSSTMKWWERWWREWPRKRR; N-acetyl, Ava linker; VARIANT 1 N-terminal acetylation; VARIANT 7, 8 Linked by a 5-amino pentanoic acid) [VEPEP-3E] | Brain | 
7 | Ac-YIGSR-(G)2-ALWRALWRLWRSLWRLLWKA-NH2 [ADGN-106-Hydro-7] |  | reduction of efficiency / luciferase expression by modification or linker vs unmodified ADGN peptide [2]: 28%
8 | Ac-YIGSR-(G)4-ALWRALWRLWRSLWRLLWKA-NH2 (Ac-YIGSRGGGGALWRALWRLWRSLWRLLWKA-NH2) [ADGN-106-Hydro-1] |  | luciferase expression [2]: high level of luciferase expression; reduction of efficiency / luciferase expression after serum treatment [2]: 40%
9 | Ac-YIGSR-(PEG)2-βA-KWRSALWRWRLWRVRSWSR-NH2 (Ac-YIGSR[PEG2′][βAla]KWRSALWRWRLWRVRSWSR-NH2) [ADGN-100-HYPEG2] | Lung | 
10 | Ac-YIGSR-(PEG)2-βALWRALWRLWRSLWRLLWKA-NH2 (Ac-YIGSR[PEG2′][βAla]LWRALWRLWRSLWRLLWKA-NH2) [ADGN-106-HYPEG2] | Tumor/Lung | luciferase expression [2]: high level of luciferase expression; reduction of efficiency / luciferase expression after serum treatment [2]: 21%
11 | Ac-YIGSR-(PEG)4-βA-KWRSALWRWRLWRVRSWSR-NH2 (Ac-YIGSR[PEG4′][βAla]KWRSALWRWRLWRVRSWSR-NH2) [ADGN-100-HYPEG4] | Lung | 
12 | Ac-YIGSR-(PEG)4-βALWRALWRLWRSLWRLLWKA-NH2 (Ac-YIGSR[PEG4′][βAla]LWRALWRLWRSLWRLLWKA-NH2) [ADGN-106-HYPEG4] | Tumor/Lung | reduction of efficiency / luciferase expression by modification or linker vs unmodified ADGN peptide [2]: 35%
13 | Ac-YIGSR-(PEG)7-βALWRALWRLWRSLWRLLWKA-NH2 (Ac-YIGSR[PEG7′][βAla]LWRALWRLWRSLWRLLWKA-NH2) [ADGN-106-HYPEG7] |  | reduction of efficiency / luciferase expression by modification or linker vs unmodified ADGN peptide [2]: 72%
14 | Ac-YIGSR-A-KWRSALWRWRLWRVRSWSR-NH2 (Ac-YIGSR[βAla]KWRSALWRWRLWRVRSWSR-NH2; SMILES CC[C@H](C)[C@H](NC(=O)[C@H](Cc1ccc(O)cc1)NC(C)=O)C(=O)NCC(=O)N[C@@H](CO)C(=O)N[C@@H](CCCNC(=N)N)C(=O)NCCC(=O)N[C@@H](CCCCN)C(=O)N[C@@H](Cc1c[nH]c2ccccc12)C(=O)N[C@@H](CCCNC(=N)N)C(=O)N[C@@H](CO)C(=O)N[C@@H](C)C(=O)N[C@@H](CC(C)C)C(=O)N[C@@H](Cc1c[nH]c2ccccc12)C(=O)N[C@@H](CCCNC(=N)N)C(=O)N[C@@H](Cc1c[nH]c2ccccc12)C(=O)N[C@@H](CCCNC(=N)N)C(=O)N[C@@H](CC(C)C)C(=O)N[C@@H](Cc1c[nH]c2ccccc12)C(=O)N[C@@H](CCCNC(=N)N)C(=O)N[C@H](C(=O)N[C@@H](CCCNC(=N)N)C(=O)N[C@@H](CO)C(=O)N[C@@H](Cc1c[nH]c2ccccc12)C(=O)N[C@@H](CO)C(=O)N[C@@H](CCCNC(=N)N)C(N)=O)C(C)C) [ADGN-100-Hydro] | Lung/Kidney | 
15 | Ac-YIGSR-Ahx-ALWRALWRLWRSLWRLLWKA-NH2 (Ac-YIGSR[Ahx]ALWRALWRLWRSLWRLLWKA-NH2; SMILES CC[C@H](C)[C@H](NC(=O)[C@H](Cc1ccc(O)cc1)NC(C)=O)C(=O)NCC(=O)N[C@@H](CO)C(=O)N[C@@H](CCCNC(=N)N)C(=O)NCCCCCC(=O)N[C@@H](C)C(=O)N[C@@H](CC(C)C)C(=O)N[C@@H](Cc1c[nH]c2ccccc12)C(=O)N[C@@H](CCCNC(=N)N)C(=O)N[C@@H](C)C(=O)N[C@@H](CC(C)C)C(=O)N[C@@H](Cc1c[nH]c2ccccc12)C(=O)N[C@@H](CCCNC(=N)N)C(=O)N[C@@H](CC(C)C)C(=O)N[C@@H](Cc1c[nH]c2ccccc12)C(=O)N[C@@H](CCCNC(=N)N)C(=O)N[C@@H](CO)C(=O)N[C@@H](CC(C)C)C(=O)N[C@@H](Cc1c[nH]c2ccccc12)C(=O)N[C@@H](CCCNC(=N)N)C(=O)N[C@@H](CC(C)C)C(=O)N[C@@H](CC(C)C)C(=O)N[C@@H](Cc1c[nH]c2ccccc12)C(=O)N[C@@H](CCCCN)C(=O)N[C@@H](C)C(N)=O) [ADGN-106 hydro-7] | Lung/Tumor | 
16 | Ac-YIGSR-Aun(CH2)6-ALWRALWRLWRSLWRLLWKA-NH2 [ADGN-106-Hydro-5] | Tumor/Lung/; also recorded: Pancreas/Liver | luciferase expression [2]: high level of luciferase expression; reduction of efficiency / luciferase expression after serum treatment [2]: 15%
17 | Ac-YIGSR-Ava(CH2)2-ALWRALWRLWRSLWRLLWKA-NH2 [ADGN-106-Hydro-3] | Tumor/Muscle | luciferase expression [2]: high level of luciferase expression; reduction of efficiency / luciferase expression after serum treatment [2]: 32%
18 | Ac-YIGSR-Balwralwrlwrslwrllwka-NH2 (Ac-YIGSR[βAla]LWRALWRLWRSLWRLLWKA-NH2) [ADGN-106-Hydro] |  | luciferase expression [2]: high level of luciferase expression; reduction of efficiency / luciferase expression after serum treatment [2]: 80%
19 | KSYDTY-ava-ALRWLRWASRWFSRWAWR (KSYDTY[Ava]ALRWLRWASRWFSRWAWR) [VEPEP-9A] | Brain/Lymphnode | 
20 | KSYDTYAAETRRWASRWFSRWAWWR (not fully specified (N-terminus, C-terminus)) [VEPEP-9D] | Brain/Lymphnode | 
21 | LSSRLDA-Ava-KWWERWWREWPRKRR (LSSRLDAKWWERWWREWPRKRR; Ava linker; VARIANT 7, 8 Linked by a 5-amino pentanoic acid) [VEPEP-3D] | Heart/Muscle | 
22 | Stearyl-βA-ALWRALWRLWRSLWRLLWKA-NH2 (Stearyl-[βAla]ALWRALWRLWRSLWRLLWKA-NH2) [ADGN-106 Stearyl] | Liver/Spleen | 
23 | beta-AKWFERWFREWPRKRR (N-terminal beta-alanine; VARIANT 1 beta-A) [VEPEP-3a] | Kidney/Pancreas | 
24 | beta-ALRWWLRWASRWFSRWAWWR (N-terminal beta-alanine; VARIANT 1 beta-A) [VEPEP-9] | Brain/Liver/; also recorded: Lung/Kidney/ | 
25 | beta-RWWLRWASRWFSRWAWR (not fully specified (residue 1, N-terminus); printed as beta-RWWLRWASRWFSRWAWR) [VEPEP-9C] | Liver/Lung/; also recorded: Kidney/Brain | 
